In patent US5242943A, “3-aminopropoxyphenyl derivatives, their preparation and pharmaceutical compositions containing them” (Louis; William J., priority 1984, dated 1993):

Legend:
tracheal muscle = assay: Tracheal preparations of the guinea pig, blockade of isoproterenol relaxation; format: cell-based; conditions: for blocking effect of the responses to isoproterenol in the trachea: at concentrations as high as 3×10^-5 mol/l; for selectivity for the cardiac beta 1 adrenoceptor: atria vs trachea, in words
beta-1 adrenoceptor = target: T1, beta-1 adrenoceptor (Rattus norvegicus, UniProt P18090); assay: Inhibition of isoproterenol induced tachycardia in the pithed rat; format: in vivo; conditions: read-out: Effective Dose (ID50)
T1 construct: from tissue; host or cells: heart of the pithed rat, in vivo
T1 sequence (P18090 whole entry): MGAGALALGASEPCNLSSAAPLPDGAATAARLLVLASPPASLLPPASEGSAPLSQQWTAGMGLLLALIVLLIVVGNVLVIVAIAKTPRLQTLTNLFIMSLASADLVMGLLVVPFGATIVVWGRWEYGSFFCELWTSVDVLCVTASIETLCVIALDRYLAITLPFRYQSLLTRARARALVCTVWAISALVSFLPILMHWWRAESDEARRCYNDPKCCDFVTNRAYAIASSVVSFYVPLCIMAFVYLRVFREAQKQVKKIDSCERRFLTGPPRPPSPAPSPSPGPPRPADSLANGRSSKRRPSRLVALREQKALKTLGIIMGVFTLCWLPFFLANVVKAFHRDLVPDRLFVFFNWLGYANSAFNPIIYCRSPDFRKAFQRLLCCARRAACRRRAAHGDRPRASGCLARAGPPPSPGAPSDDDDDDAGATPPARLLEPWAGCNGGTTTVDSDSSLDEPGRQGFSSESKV

beta adrenoceptor = target: T2, beta adrenoceptor (Cavia porcellus, UniProt H0W3H1); assay: Inhibition of the positive chronotropic isoproterenol effect in spontaneously beating guinea pig atrium; format: cell-based
T2 construct: in the spontaneously beating guinea pig atrium; from tissue; host or cells: guinea pig atrium
T2 sequence (H0W3H1 1-470): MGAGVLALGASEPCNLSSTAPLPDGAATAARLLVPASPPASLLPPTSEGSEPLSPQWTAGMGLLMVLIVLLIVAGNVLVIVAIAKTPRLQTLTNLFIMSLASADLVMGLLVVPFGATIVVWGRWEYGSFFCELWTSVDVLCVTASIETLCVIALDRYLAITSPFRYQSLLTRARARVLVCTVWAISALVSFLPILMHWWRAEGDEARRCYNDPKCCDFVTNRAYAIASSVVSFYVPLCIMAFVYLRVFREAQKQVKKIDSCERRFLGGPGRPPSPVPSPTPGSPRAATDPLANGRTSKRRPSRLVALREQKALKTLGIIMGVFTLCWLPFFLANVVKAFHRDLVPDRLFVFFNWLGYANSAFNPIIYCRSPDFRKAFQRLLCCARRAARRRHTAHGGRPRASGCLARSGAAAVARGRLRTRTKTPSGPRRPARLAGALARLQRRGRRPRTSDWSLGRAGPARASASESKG

[1] = test system: cardiac contractile force; assay: Cardiac contractile force in anaesthetised, vagotomized, spinalised cat; format: in vivo; conditions: in words
Method: In the anaesthetised, vagotomized cat spinalised at the level of second cervical vertebrae the compounds exert an increase in cardiac contractile force at a dose of from about 20 to about 2,500 ug/kg i.v. as measured with a strain gauge arch sewn into the left ventricle. The effect may also be measured as a concentration dependent stimulation of the isolated spontaneously beating guinea pig atrium.

| Structure (SMILES) | selectivity (tracheal muscle; guinea pig atria vs trachea, known selective beta adrenoceptor blockers) | ED50 (beta-1 adrenoceptor) [mg/kg] | Kb (beta adrenoceptor) [nM] | blocking effect of the responses to isoproterenol in the trachea (tracheal muscle) | selectivity for the cardiac beta 1 adrenoceptor (tracheal muscle) | balance between the agonistic and antagonistic activities [1] |
| --- | --- | --- | --- | --- | --- | --- |
| CC(C)NCC(O)COc1ccc(CC(N)=O)cc1 (centres unmarked) [Atenolol, reference compound] | 20 |  |  |  |  |  |
| Cc1cc(OCCOCC2CC2)ccc1OCC(O)CNCCNC(=O)C1CCOCC1 (centres unmarked) [Example 1, 1-(2-Methyl-4-(2-cyclopropylmethoxyethoxy)-phenoxy)-3-(2-(tetrahydropyran-4-yl-carbonylamino)ethylamino)-2-propanol] |  | 0.1 | 120 |  |  |  |
| CCCOCCOc1ccc(OCC(O)CNCCNC(=O)C2CCOCC2)c(F)c1 (centres unmarked) [Example 2, 1-(2-fluoro-4-(2-propoxy-ethoxy)phenoxy)-3-(2-(tetrahydropyran-4-yl-carbonylamino)ethylamino)-2-propanol] |  | 0.02 | 50 | no blocking effect | virtually absolute selectivity |  |
| CCCOCCOc1ccc(OCC(O)CNCCNC(=O)C2CCOCC2)cc1 (centres unmarked) [Example 3] |  | 0.015 | 80 | no blocking effect | virtually absolute selectivity |  |
| CC(C)COCCOc1ccc(OCC(O)CNCCNC(=O)C2CCOCC2)cc1 (centres unmarked) [Example 4] |  | 0.02 | 50 | no blocking effect | virtually absolute selectivity |  |
| O=C(NCCNCC(O)COc1ccc(OCCOCC2CCCC2)cc1)C1CCOCC1 (centres unmarked) [Example 5] |  | 0.03 | 30 | no blocking effect | virtually absolute selectivity |  |
| O=C(NCCNCC(O)COc1ccc(OCCOCCc2ccc(F)cc2)cc1)C1CCOCC1 (centres unmarked) [Example 6] |  | 0.03 | 20 | no blocking effect | virtually absolute selectivity |  |
| O=C(NCCNCC(O)COc1ccc(OCCOCc2ccc(F)cc2)cc1)C1CCOCC1 (centres unmarked) [Example 7] |  | 0.02 | 200 |  |  |  |
| CCCOCCOc1ccc(OCC(O)CNCCNC(=O)C2CCOCC2)c(C#N)c1 (centres unmarked) [Example 8] |  | 0.02 | 70 |  |  |  |
| CCCOCCOc1ccc(OC[C@@H](O)CNC(C)CNC(=O)C2CCOCC2)cc1 (stereo partly drawn) [Example 9, (S)-1-(4-(2-propoxyethoxy)phenoxy)-3((R,S)-2-(tetrahydropyran-4-ylcarbonylamino)-1-methylethylamino)-2-propanol] |  | 0.003 | 40 |  |  | particularly favourable |
| CCCOCCOc1ccc(OC[C@@H](O)CN[C@H](C)CNC(=O)C2CCOCC2)cc1 [Example 10, (S)-1-(4-(2-propoxyethoxy)phenoxy)-((R)-2-(tetrahydropyran-4-ylcarbonylamino)-1-methylethylamino)-2-propanol] |  | 0.0006 | 30 |  |  |  |
| CCCOCCOc1ccc(OC[C@@H](O)CN[C@@H](C)CNC(=O)C2CCOCC2)cc1 [Example 11, (S)-1-(4-(2-propoxyethoxy)phenoxy)-3-((S)-2-(tetrahydropyran-4-yl-carbonylamino)-1-methylethylamino)-2-propanol] |  | 0.02 | 160 |  |  |  |
| C[C@H](CNC(=O)C1CCOCC1)NCC(O)COc1ccc(OCCOCC2CCCC2)cc1 (some centres unmarked) [Example 15] |  | 0.01 | 30 | no blocking effect | virtually absolute selectivity |  |
| CC(C)COCCOc1ccc(OCC(O)CN[C@H](C)CNC(=O)C2CCOCC2)cc1 (some centres unmarked) [Example 21] |  | 0.005 | 70 |  |  |  |
| O=C(NCCNCC(O)COc1ccc(O)cc1F)C1CCOCC1 (centres unmarked) [Example 33, 1-(2-fluoro-4-hydroxyphenoxy)-3-[2-(tetrahydropyran-4-ylcarbonylamino)ethylamino]-2-propanol] |  |  |  |  |  | particularly favourable |
